Measurements taken from article PMC10455802, “A New Mild Method for Synthesis of Marine Alkaloid Fascaplysin and Its Therapeutically Promising Derivatives” (Marine Drugs, 2023).

Tests used:
[1] = test system: human prostate cancer cells PC-3, 22Rv1, DU145, LNCaP; assay: MTT assay, cancer cells (average); format: cell-based; settings: mean of PC-3, 22Rv1, DU145, LNCaP
From the text: (§1) To investigate the effect of the tert-butyl group on anticancer activity and selectivity, we evaluated the cytotoxic activity of unsubstituted fascaplysin (1) and 6-tert-butylfascaplysin (4) in various cancer and non-cancer cell lines using the well-established MTT method (Table 4). The effects on the human prostate cancer cells PC3 and DU145 (hormone-independent cells), 22Rv1 (partially hormone-independent cells), and LNCaP (hormone-sensitive cells), as well as on the normal (non-cancerous) human cells PNT2, MRC-9, and HEK293, were investigated. The mean cytotoxicity of compound 4 towards either cancerous or non-cancerous cells decreased by ~2-fold compared to that of fascaplysin (1).
(§2) Cell lines PC-3, DU145, 22Rv1, and LNCaP (human prostate cancer), as well as PNT2 (human prostate non-cancer), were purchased from ATCC (Manassas, VA, USA). Human embryonic kidney cells HEK 293T and human fibroblasts MRC-9 cell lines were purchased from ECACC (Salisbury, UK). […] The cells were cultured at 37 °C as monolayers in a humidified atmosphere of 5% CO2. […]
(§3) The cytotoxic activity of the synthesized compounds was examined using an MTT assay, which was performed as previously reported. […] The absorbance of the DMSO solutions was measured using a TECAN Infinite F200PRO reader (Männedorf, Switzerland). IC50 were calculated with the GraphPad Prism v.9.1.1 (San Diego, CA, USA).

[2] = test system: DU145 cells (human prostate cancer); assay: MTT assay, DU145; format: cell-based; settings: DU-145, DU145, 48 h, mean ± SD
From the text: as §1, §2, §3

[3] = test system: 22Rv1 cells (human prostate cancer); assay: MTT assay, 22Rv1; format: cell-based; settings: 22Rv1, 48 h, mean ± SD
From the text: as §1, §2, §3

[4] = test system: PC-3 cells (human prostate cancer); assay: MTT assay, PC-3; format: cell-based; settings: PC-3, 48 h, mean ± SD
From the text: as §1, §2, §3

[5] = test system: HEK293 cells (human embryonic kidney); assay: MTT assay, HEK293; format: cell-based; settings: HEK293, 48 h, mean ± SD
From the text: as §1, §2, §3

[6] = test system: MRC-9 cells (human fibroblasts); assay: MTT assay, MRC-9; format: cell-based; settings: MRC9, MRC-9, 48 h, mean ± SD
From the text: as §1, §2, §3

[7] = test system: normal (non-cancerous) human cells PNT2, MRC-9, HEK293; assay: MTT assay, non-cancer cells (average); format: cell-based; settings: mean of PNT2, MRC-9, HEK293
From the text: as §1, §2, §3

[8] = test system: PNT2 cells (human prostate non-cancer); assay: MTT assay, PNT2; format: cell-based; settings: PNT2, 48 h, mean ± SD
From the text: as §1, §2, §3

[9] = test system: LNCaP cells (human prostate cancer); assay: MTT assay, LNCaP; format: cell-based; settings: 48 h, mean ± SD
From the text: as §1, §2, §3

[10] = test system: human prostate cancer cells and normal (non-cancerous) human cells; assay: MTT assay, cancer and non-cancer cell lines together (selectivity, overall cytotoxicity); format: cell-based
From the text: as §1
Cell lines PC-3, DU145, 22Rv1, and LNCaP (human prostate cancer), as well as PNT2 (human prostate non-cancer), were purchased from ATCC (Manassas, VA, USA). Human embryonic kidney cells HEK 293T and human fibroblasts MRC-9 cell lines were purchased from ECACC (Salisbury, UK). […] The cells were cultured at 37 °C as monolayers in a humidified atmosphere of 5% CO2. The culture mediums used for cultivation and experiments: for PNT2, LNCaP, 22Rv1, PC-3, and DU145 cells—RPMI Glutamax^TM-I medium (gibco® Life Technologies^TM, Paisley, UK), supplemented with 10% FBS (gibco® Life Technologies^TM) and 1% penicillin/streptomycin (Invitrogen, Waltham, MA, USA); for MRC-9 and HEK 293 cells—DMEM GlutamaxTM-I medium (gibco® Life Technologies^TM), supplemented with 10% FBS and 1% penicillin/streptomycin.
as §3, with “reported. In brief, the cells were seeded in 96-well plates (6000 cells/well) and incubated overnight. The medium was replaced with fresh medium containing the tested drugs, and the cells were incubated for an additional 48 h.” for “reported.”

[11] = test system: double-stranded calf thymus DNA; assay: Thiazole orange displacement (DNA intercalation assay); format: binding; settings: compared to fascaplysin (1)
Description: As the intercalation into DNA is considered an important component of the biological mechanism of action of fascaplysin, we evaluated and compared this activity for the synthesized 6-tert-butylfascaplysin (4) and unsubstituted fascaplysin (1). The drug–DNA complex formation was assessed by a fluorescent intercalator displacement assay based on the detachment of the thiazole orange (TO) intercalating agent from the DNA duplex by the tested compounds. The half-maximal concentrations for the effective displacement of TO from the DNA complex were calculated and are presented in Figure 3. In this experiment, the well-established DNA-binding compound, propidium iodide (PI), was used as a positive control.
A thiazole displacement assay was performed to measure the DNA intercalation activity. A mixture, containing 1 μM of double-stranded calf thymus DNA (recalculated as a concentration of base pairs) and 2 μM of thiazole orange (TO) staining agent dissolved in H2O, was used. The fascaplysins were added at concentrations of 0.39–25 μM. The DMSO concentration in the samples was not more than 0.02%. […] TO fluorescence was measured 7 min post-incubation at room temperature using a multimodal plate reader TECAN Spark (Männedorf, Switzerland) at the excitation λ = 480 nm. Fluorescence was recorded at λ = 530 nm with the bandwidth 10 nm. […]

[12] = format: physicochemical
Description: (§4) It was proposed based on the HRMS data, and its obtainment can be explained by the tendency towards oxidation of the fragment of p-hydroxyaminophenol of compound 26 (Scheme 6).
Method A. Freshly distilled BF3·OEt2 (0.02 mL, […]) in 2 mL of dry acetonitrile was slowly added to a stirred solution of 3 (5 mg, 0.01 mmol) and anhydrous NaI (2 mg, […]) in 5 mL of dry acetonitrile at 0 °C for 10–15 min. The mixture was stirred at 0 °C for 2 h and then for another 8 h at room temperature. The reaction was monitored by TLC. The formation of a rapidly oxidizing compound, presumably compound 27, with by-products was observed.
Method B. To 5 mg of 9-benzyloxyfascaplysin (0.01 mmol) in 5 mL of ethanol in a 10 mL flat-bottom flask, a catalytic amount of 10% palladium on carbon was added; this was sealed with a septum and left to stir under a hydrogen atmosphere on a magnetic stirrer at room temperature for 16 h. The reaction mixture changed color to green after 15 min. The progress of the reaction was monitored by TLC. The formation of a rapidly oxidizing compound, presumably compound 27, with by-products was observed.

[13] = Solubility observation of debenzylation product; format: physicochemical; settings: product of benzyl removal from 3, presumably quinoid compound
From the text: as §4

Row | chemical stability [12] | solubility [13] | SMILES | IC50 [1] [nM] | IC50 [2] [nM] | IC50 [3] [nM] | IC50 [4] [nM] | IC50 [5] [nM] | IC50 [6] [nM] | IC50 [7] [nM] | IC50 [8] [nM] | IC50 [9] [nM] | IC50 ([10]; Homo sapiens, all tested cancer and non-cancer cell lines, read-out: IC50 in either cell line) [nM] | Selectivity index (SI) ([10]; SI = mean [IC50 non-cancer cells]/mean [IC50 cancer cells]) | fold decrease of mean cytotoxicity compared to fascaplysin (1) ([10]; towards either cancerous or non-cancerous cells) | fold less effective at displacing TO from the fluorescent complex with DNA than 1 [11] [fold]
1 | – | – | O=C1c2ccccc2-[n+]2ccc3c([nH]c4ccccc43)c21 [Compound 1, fascaplysin] | 554 | 798 ± 54 | 242 | 766 ± 126 | 458 ± 190 | 890 ± 46 | 602 | 457 ± 75 | 409 ± 20 | – | – | – | –
2 | – | – | CC(C)(C)c1cc2c([nH]c3ccccc32)c2[n+]1-c1ccccc1C2=O [Compound 4, 6-tert-butylfascaplysin] | 1190 | 1730 ± 172 | 580 ± 73 | 1100 ± 76 | 348 ± 90 | 1370 ± 424 | 1180 | 1820 ± 448 | 1330 ± 240 | ≤ 2000 | 0.99 | ~ 2 fold | 7
3 | chemically highly unstable | – | O=C1c2ccccc2-[n+]2ccc3c([nH]c4ccc(O)cc43)c21 [Compound 26, 9-hydroxyfascaplysin] | – | – | – | – | – | – | – | – | – | – | – | – | –
4 | – | extremely poorly soluble | O=c1ccc2nc3c(cc[n+]4c5ccccc5c(=O)c34)c-2c1 [Compound 27] | – | – | – | – | – | – | – | – | – | – | – | – | –
